≈ marks a conversion by molar mass, not a printed value. Bounds are passed on as bounds.

Results on six molecules are retold here after DBAASP.

Among the test systems are Enterococcus faecium VR; Enterococcus faecalis VR; Enterococcus faecalis; Staphylococcus aureus MR; Enterococcus faecium; Pseudomonas aeruginosa; Klebsiella pneumoniae; Acinetobacter baumannii.
Assay in all cases: ≥ marks a high value that may be exact or a test limit, other limits are often not marked, values filed in µg/mL are converted to µM
For assay [1], the system named is Staphylococcus epidermidis KCTC 1917.
In assay [2] the test system is Salmonella typhimurium KCTC 1926.
In assay [3] the test system is Escherichia coli KCTC 1682.
For assay [4], the system named is Bacillus subtilis KCTC 3068.
Assay [5] concerns Staphylococcus aureus KCTC 1621.
Assay [6] concerns Pseudomonas aeruginosa KCTC 1637.
For assay [7], the system named is Acinetobacter baumannii ATCC 19606.
For assay [8], the system named is Cryptococcus neoformans ATCC 208821.
Assay [9] has as its system Klebsiella pneumoniae ATCC 13883.
Assay [10] relates to Candida albicans ATCC 90028.
Assay [11] deals with Bacillus subtilis ATCC 6051.
For assay [12], the system named is Pseudomonas aeruginosa ATCC 27853.
Assay [13] concerns Klebsiella pneumoniae ATCC BAA-2146.
Assay [14] concerns Klebsiella pneumoniae ATCC 700603.
The test system of assay [15] is Escherichia coli ATCC 25922.
Assay [16] has as its system Staphylococcus aureus ATCC 43300.

On to `CC[C@H](C)[C@H](NC(=O)[C@H](CS)NC(=O)[C@H](Cc1cnc[nH]1)NC(=O)[C@H](C)NC(=O)[C@H](C)N)C(=O)N[C@@H](C)C(=O)N[C@@H](CC(C)C)C(=O)N[C@@H](CCCN=C(N)N)C(=O)N[C@@H](CCCCN)C(=O)NCC(=O)N[C@@H](Cc1ccc(O)cc1)C(=O)N[C@@H](CCCCN)C(N)=O` [AAHCIALRKGYK], for which the MIC is 30 µM (≈ 39.9 µg/mL) in [1]; 30 µM (≈ 39.9 µg/mL) in [2]; 30 µM (≈ 39.9 µg/mL) in the assay on Enterococcus faecium VR; 15 µM (≈ 19.9 µg/mL) against Enterococcus faecalis VR; 30 µM (≈ 39.9 µg/mL) in the assay on Enterococcus faecalis; 30 µM (≈ 39.9 µg/mL) with Staphylococcus aureus MR. Further, the MIC worked out at 30 µM (≈ 39.9 µg/mL) in [3]; 7.5 µM (≈ 9.97 µg/mL) in the assay with Enterococcus faecium; 30 µM (≈ 39.9 µg/mL) in assay [4]; 30 µM (≈ 39.9 µg/mL) in [5]; 30 µM (≈ 39.9 µg/mL) in assay [6].
For the molecule `CC[C@H](C)[C@H](NC(=O)[C@H](CS)NC(=O)[C@H](CC(N)=O)NC(=O)[C@H](C)NC(=O)[C@H](C)N)C(=O)N[C@H](C(=O)N[C@@H](CC(C)C)C(=O)NCC(=O)N[C@@H](CCCCN)C(=O)N[C@@H](C)C(N)=O)[C@@H](C)O` [AANCITLGKA], the MIC (in assay [1]; in assay [2]; in the assay on Enterococcus faecium VR; against Enterococcus faecalis VR; against Enterococcus faecalis; against Staphylococcus aureus MR) was 30 µM (≈ 28.8 µg/mL) throughout. In addition, the minimal inhibitory concentration (MIC) (in [3]; with Enterococcus faecium; in [4]; in [5]; in [6]) was 30 µM (≈ 28.8 µg/mL) throughout.
Consider `CC[C@H](C)[C@H](NC(=O)[C@H](C)N)C(=O)N[C@@H](CCCN=C(N)N)C(=O)N[C@@H](CS)C(=O)N[C@@H](CC(C)C)C(=O)N[C@@H](C)C(=O)N[C@@H](CCCCN)C(=O)N[C@@H](CCCN=C(N)N)C(=O)N[C@@H](CCCN=C(N)N)C(=O)N[C@@H](CCCCN)C(N)=O` [AIRCLAKRRK], for which the MIC in assay [1] turned out to be 7.5 µM (≈ 9.1 µg/mL); in assay [2] it was 7.5 µM (≈ 9.1 µg/mL); against Enterococcus faecium VR, 15 µM (≈ 18.2 µg/mL); in the assay with Enterococcus faecalis VR, 30 µM (≈ 36.4 µg/mL); against Enterococcus faecalis it was 30 µM (≈ 36.4 µg/mL); with Staphylococcus aureus MR it was 7.5 µM (≈ 9.1 µg/mL). The MIC in [3] was 30 µM (≈ 36.4 µg/mL); in the assay with Enterococcus faecium, 3.8 µM (≈ 4.61 µg/mL); in assay [4], 7.5 µM (≈ 9.1 µg/mL); in assay [5] it was 7.5 µM (≈ 9.1 µg/mL); in assay [6], 7.5 µM (≈ 9.1 µg/mL).
As for `CC[C@H](C)[C@H](NC(=O)CNC(=O)[C@H](CCCNC(=N)N)NC(=O)[C@H](Cc1ccc(O)cc1)NC(=O)[C@H](C)NC(=O)[C@@H](NC(=O)[C@H](CCCNC(=N)N)NC(=O)[C@H](Cc1ccccc1)NC(=O)[C@H](C)NC(=O)[C@H](Cc1c[nH]c2ccccc12)NC(=O)[C@@H](N)CCCCN)C(C)C)C(=O)N[C@@H](C)C(=O)N[C@@H](Cc1ccc(O)cc1)C(=O)N[C@@H](CCCNC(=N)N)C(=O)N[C@@H](CCCNC(=N)N)C(=O)N[C@@H](C)C(=O)N[C@@H](CCCNC(=N)N)C(N)=O` [KWAFRVAYRGIAYRRAR], the MIC in assay [7] is 1.87 µM (≈ 4 µg/mL); with Pseudomonas aeruginosa it was greater than 7.47 µM; in assay [8], 0.467 µM (≈ 1 µg/mL); against Klebsiella pneumoniae, greater than 7.47 µM; in assay [9], 7.47 µM (≈ 16 µg/mL); in [10], 7.47 µM (≈ 16 µg/mL). The MIC in assay [11] is 0.467 µM (≈ 1 µg/mL); in assay [12], greater than 7.47 µM; in assay [13], 7.47 µM (≈ 16 µg/mL); in assay [14] it was 7.47 µM (≈ 16 µg/mL); in the assay on Acinetobacter baumannii, 1.87 µM (≈ 4 µg/mL); in assay [15] it was 3.74 µM (≈ 8 µg/mL). Further, the MIC in assay [16] was 7.47 µM (≈ 16 µg/mL).
As to `CC[C@H](C)[C@@H]1NC(=O)CNC(=O)[C@H](CCCN=C(N)N)NC(=O)[C@H](Cc2ccc(O)cc2)NC(=O)[C@@H]2CSSC[C@H](NC1=O)C(=O)N[C@@H](C)C(=O)N[C@@H](CCCN=C(N)N)C(=O)N[C@@H](CCCN=C(N)N)C(=O)N[C@H](C(=O)N[C@@H](CCCN=C(N)N)C(=O)O)CSSC[C@H](NC(=O)[C@H](Cc1c[nH]c3ccccc13)NC(=O)[C@@H](N)CCCCN)C(=O)N[C@@H](Cc1ccccc1)C(=O)N[C@@H](CCCN=C(N)N)C(=O)N[C@@H](C(C)C)C(=O)N2` [KWCFRVCYRGICARRCR], the MIC in [7] was 0.0574 µM (≈ 0.125 µg/mL); against Pseudomonas aeruginosa, 0.919 µM (≈ 2 µg/mL); in assay [8] it was 0.23 µM (≈ 0.499 µg/mL); against Klebsiella pneumoniae, 3.68 µM (≈ 7.99 µg/mL); in assay [9], 0.115 µM (≈ 0.25 µg/mL); in assay [10], 1.84 µM (≈ 3.99 µg/mL). Further, the MIC was found to be 0.0276 µM (≈ 0.06 µg/mL) in assay [11]; 0.23 µM (≈ 0.499 µg/mL) in assay [12]; 0.23 µM (≈ 0.499 µg/mL) in assay [13]; 0.23 µM (≈ 0.499 µg/mL) in [14]; 0.115 µM (≈ 0.25 µg/mL) in the assay with Acinetobacter baumannii; 0.115 µM (≈ 0.25 µg/mL) in [15]. The molecule further came in with an MIC in assay [16] of 1.84 µM (≈ 3.99 µg/mL).
`CC[C@H](C)[C@@H]1NC(=O)CNC(=O)[C@H](CCCN=C(N)N)NC(=O)[C@H](Cc2ccc(O)cc2)NC(=O)[C@@H]2CSSC[C@H](NC1=O)C(=O)N[C@@H](Cc1ccc(O)cc1)C(=O)N[C@@H](CCCN=C(N)N)C(=O)N[C@@H](CCCN=C(N)N)C(=O)N[C@H](C(=O)N[C@@H](CCCN=C(N)N)C(=O)O)CSSC[C@H](NC(=O)[C@H](Cc1c[nH]c3ccccc13)NC(=O)[C@@H](N)CCCN=C(N)N)C(=O)N[C@@H](Cc1ccccc1)C(=O)N[C@@H](CCCN=C(N)N)C(=O)N[C@@H](C(C)C)C(=O)N2` [RWCFRVCYRGICYRRCR]: the MIC in [7] was 0.0544 µM (≈ 0.125 µg/mL); against Pseudomonas aeruginosa, 0.218 µM (≈ 0.499 µg/mL); in [8], 0.109 µM (≈ 0.249 µg/mL); with Klebsiella pneumoniae, 1.74 µM (≈ 3.99 µg/mL); in assay [9], 0.0544 µM (≈ 0.125 µg/mL); in [10], 1.74 µM (≈ 3.99 µg/mL). Moreover, the MIC is 0.0544 µM (≈ 0.125 µg/mL) in assay [11]; 0.109 µM (≈ 0.249 µg/mL) in [12]; 0.109 µM (≈ 0.249 µg/mL) in assay [13]; 0.218 µM (≈ 0.499 µg/mL) in assay [14]; 0.109 µM (≈ 0.249 µg/mL) with Acinetobacter baumannii; 0.0544 µM (≈ 0.125 µg/mL) in [15]. The molecule also had an MIC in assay [16] of 0.435 µM (≈ 0.998 µg/mL).
